Assay results as given in ChEMBL document CHEMBL1201862, “PubChem BioAssay data set” (2004).
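48-hour exposure; five concentrations; linearly interpolated endpoints. The concentration for 50% growth inhibition is given as GI50.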 Active and inactive are the calls of the source. No stated cut-off is given here; in the data, active = GI50 up to about 1.1 µM and inactive = higher.

What was measured:
Assay in all cases: inhibition of tumour cell growth, NCI panel, 48 h
A498 = test system: A498
ACHN = test system: ACHN
BT-549 = test system: BT-549
CCRF-CEM = test system: CCRF-CEM
HCC 2998 = test system: HCC 2998
IGROV-1 = test system: IGROV-1
K562 = test system: K562
KM12 = test system: KM12
M14 = test system: M14
MDA-N = test system: MDA-N
NCI-H226 = test system: NCI-H226
NCI/ADR-RES = test system: NCI/ADR-RES
RPMI-8226 = test system: RPMI-8226
SK-MEL-28 = test system: SK-MEL-28
SK-MEL-2 = test system: SK-MEL-2
SK-MEL-5 = test system: SK-MEL-5
SNB-19 = test system: SNB-19
T47D = test system: T47D
UO-31 = test system: UO-31
CAKI-1 = test system: CAKI-1

| SMILES | GI50 (A498) | GI50 (ACHN) | GI50 (BT-549) | GI50 (CCRF-CEM) | GI50 (HCC 2998) | GI50 (IGROV-1) | GI50 (K562) | GI50 (KM12) | GI50 (M14) | GI50 (MDA-N) | GI50 (NCI-H226) | GI50 (NCI/ADR-RES) | GI50 (RPMI-8226) | GI50 (SK-MEL-28) | GI50 (SK-MEL-2) | GI50 (SK-MEL-5) | GI50 (SNB-19) | GI50 (T47D) | GI50 (UO-31) | GI50 (CAKI-1) |
| --- | --- | --- | --- | --- | --- | --- | --- | --- | --- | --- | --- | --- | --- | --- | --- | --- | --- | --- | --- | --- |
| CCCCOc1ccc(NC(=N)Nc2ccc(Cl)cc2)cc1 | 0.443 µM (active) | 0.462 µM (active) | 9.57 µM (inactive) | 0.251 µM (active) | 0.358 µM (active) | 1.22 µM (inactive) | 3.01 µM (inactive) | 12.5 µM (inactive) | 3.66 µM (inactive) | 5.58 µM (inactive) | 12.7 µM (inactive) | 2.28 µM (inactive) | 3.89 µM (inactive) | 13.2 µM (inactive) | 2.64 µM (inactive) | 0.284 µM (active) | 2.74 µM (inactive) | 0.474 µM (active) | 2.43 µM (inactive) | – |
| CC(=O)OC1CCC2(C)C(=CCC3C2CCC2(C)C3CC3OC4(CCC(C)CN4)C(C)C32)C1 (stereo not given) | > 100 µM (inactive) | > 100 µM (inactive) | > 100 µM (inactive) | > 100 µM (inactive) | – | > 100 µM (inactive) | > 100 µM (inactive) | > 100 µM (inactive) | > 100 µM (inactive) | > 100 µM (inactive) | > 100 µM (inactive) | > 100 µM (inactive) | > 100 µM (inactive) | > 100 µM (inactive) | > 100 µM (inactive) | > 100 µM (inactive) | > 100 µM (inactive) | > 100 µM (inactive) | > 100 µM (inactive) | > 100 µM (inactive) |
| COc1ccc2cc(C(=O)CCC(=O)O)ccc2c1 | > 100 µM (inactive) | > 100 µM (inactive) | > 100 µM (inactive) | > 100 µM (inactive) | – | > 100 µM (inactive) | > 100 µM (inactive) | > 100 µM (inactive) | > 100 µM (inactive) | > 100 µM (inactive) | > 100 µM (inactive) | > 100 µM (inactive) | > 100 µM (inactive) | > 100 µM (inactive) | > 100 µM (inactive) | > 100 µM (inactive) | > 100 µM (inactive) | > 100 µM (inactive) | > 100 µM (inactive) | > 100 µM (inactive) |
| O=C(O)/C(Cc1c[nH]nn1)=N\O | > 100 µM (inactive) | > 100 µM (inactive) | > 100 µM (inactive) | > 100 µM (inactive) | – | > 100 µM (inactive) | > 100 µM (inactive) | > 100 µM (inactive) | > 100 µM (inactive) | > 100 µM (inactive) | > 100 µM (inactive) | > 100 µM (inactive) | > 100 µM (inactive) | > 100 µM (inactive) | > 100 µM (inactive) | > 100 µM (inactive) | > 100 µM (inactive) | > 100 µM (inactive) | > 100 µM (inactive) | > 100 µM (inactive) |
| Cc1ccc(S(=O)(=O)NC(=O)NC2=NC(C)(C)N(c3ccc(Cl)c(Cl)c3)C(N)=N2)cc1 | > 100 µM (inactive) | 11.1 µM (inactive) | > 100 µM (inactive) | 4.74 µM (inactive) | 15.9 µM (inactive) | 19 µM (inactive) | 1.94 µM (inactive) | 65.8 µM (inactive) | 17.6 µM (inactive) | 5.04 µM (inactive) | 67.8 µM (inactive) | > 100 µM (inactive) | – | > 100 µM (inactive) | > 100 µM (inactive) | 18.3 µM (inactive) | 97.9 µM (inactive) | 10.4 µM (inactive) | > 100 µM (inactive) | 49.5 µM (inactive) |
| C=C(C)C(=O)CC[C@@H](C)[C@H]1[C@@H](OC2OC(CO)C(O)C(O)C2O)C[C@@]2(C)[C@@H]3C[C@H](O)C4C(C)(C)[C@@H](OC5OC(CO)C(O)C(O)C5O)CC[C@@]45C[C@@]35CC[C@]12C (stereo not given in full) | > 100 µM (inactive) | > 100 µM (inactive) | 36.6 µM (inactive) | 64.9 µM (inactive) | 47 µM (inactive) | > 100 µM (inactive) | 90.6 µM (inactive) | > 100 µM (inactive) | > 100 µM (inactive) | 24.6 µM (inactive) | – | > 100 µM (inactive) | > 100 µM (inactive) | > 100 µM (inactive) | > 100 µM (inactive) | 46.6 µM (inactive) | 48.8 µM (inactive) | > 100 µM (inactive) | > 100 µM (inactive) | 66.4 µM (inactive) |
| Fc1ccc2nc3n(c2c1)C(c1c(Cl)cccc1Cl)SC3 (stereo not given) | > 100 µM (inactive) | > 100 µM (inactive) | > 100 µM (inactive) | – | > 100 µM (inactive) | > 100 µM (inactive) | – | > 100 µM (inactive) | > 100 µM (inactive) | 7.89 µM (inactive) | > 100 µM (inactive) | > 100 µM (inactive) | > 100 µM (inactive) | > 100 µM (inactive) | > 100 µM (inactive) | > 100 µM (inactive) | > 100 µM (inactive) | > 100 µM (inactive) | > 100 µM (inactive) | > 100 µM (inactive) |
| O=C(OCc1ccccc1)N1CCN(C(=O)OCc2ccccc2)CCN(C(=O)OCc2ccccc2)CCN(C(=O)OCc2ccccc2)CCN(C(=O)OCc2ccccc2)CC1 | > 100 µM (inactive) | > 100 µM (inactive) | > 100 µM (inactive) | – | > 100 µM (inactive) | – | – | > 100 µM (inactive) | 35.3 µM (inactive) | > 100 µM (inactive) | > 100 µM (inactive) | 79.4 µM (inactive) | – | > 100 µM (inactive) | > 100 µM (inactive) | 18.4 µM (inactive) | > 100 µM (inactive) | > 100 µM (inactive) | 22.8 µM (inactive) | > 100 µM (inactive) |
| Cn1cc(-c2ccc(CCOC3CCCCO3)cc2)c2c(C#N)cccc21 (stereo not given) | 61.2 µM (inactive) | – | 98.6 µM (inactive) | 24.4 µM (inactive) | 35.7 µM (inactive) | > 100 µM (inactive) | 22.9 µM (inactive) | 61.7 µM (inactive) | 37.8 µM (inactive) | 48 µM (inactive) | – | 30.9 µM (inactive) | 41.9 µM (inactive) | 14.9 µM (inactive) | 28.7 µM (inactive) | > 100 µM (inactive) | > 100 µM (inactive) | 21.3 µM (inactive) | 28 µM (inactive) | > 100 µM (inactive) |
| CC(/C=C/C(O)=C1/C(=O)CNC1=O)=C\[C@@H](C)[C@H]1O[C@@]2(C)O[C@H](C(=O)[C@@H]3O[C@@]32C)[C@@H]1C | 14.3 µM (inactive) | 19.6 µM (inactive) | 15.8 µM (inactive) | 7.24 µM (inactive) | – | 20.4 µM (inactive) | 19.8 µM (inactive) | 20 µM (inactive) | 31.8 µM (inactive) | 35.8 µM (inactive) | 21.2 µM (inactive) | 26.6 µM (inactive) | 12.2 µM (inactive) | 17.6 µM (inactive) | 22.7 µM (inactive) | 17.5 µM (inactive) | 22.9 µM (inactive) | 15.1 µM (inactive) | 13.8 µM (inactive) | 19.4 µM (inactive) |
| CC(C)NC(=O)OCc1c2c(n(C)c1COC(=O)NC(C)C)-c1cc(Cl)c(Cl)cc1CC2 | 6.37 µM (inactive) | 34.2 µM (inactive) | 68.2 µM (inactive) | 17.2 µM (inactive) | 14.9 µM (inactive) | 20.3 µM (inactive) | 16.6 µM (inactive) | 30.6 µM (inactive) | 27.9 µM (inactive) | 32 µM (inactive) | 8.91 µM (inactive) | 33.4 µM (inactive) | 23.4 µM (inactive) | 64.1 µM (inactive) | 25.2 µM (inactive) | 42.7 µM (inactive) | 37.8 µM (inactive) | 22.6 µM (inactive) | 27 µM (inactive) | – |
| OCC1OC(c2n[nH]c3c(O)ncnc23)C(O)C1O (stereo not given) | 30.1 µM (inactive) | 4.01 µM (inactive) | 56.8 µM (inactive) | 7.38 µM (inactive) | 18.7 µM (inactive) | 18.4 µM (inactive) | 7.48 µM (inactive) | 16.7 µM (inactive) | 5.48 µM (inactive) | 31.7 µM (inactive) | 44.9 µM (inactive) | 4.22 µM (inactive) | 21.9 µM (inactive) | 50 µM (inactive) | – | 21.5 µM (inactive) | 31 µM (inactive) | 4.72 µM (inactive) | 8.79 µM (inactive) | 6.81 µM (inactive) |
| N#Cc1ccc(/C=[N+](/C=c2ccc(=C=[N-])cc2)N(CCO)C2=NCCN2)cc1 | > 100 µM (inactive) | > 100 µM (inactive) | > 100 µM (inactive) | > 100 µM (inactive) | > 100 µM (inactive) | > 100 µM (inactive) | > 100 µM (inactive) | > 100 µM (inactive) | > 100 µM (inactive) | > 100 µM (inactive) | > 100 µM (inactive) | > 100 µM (inactive) | – | – | > 100 µM (inactive) | > 100 µM (inactive) | > 100 µM (inactive) | > 100 µM (inactive) | > 100 µM (inactive) | > 100 µM (inactive) |
| CNc1nc(OC)c2c(n1)n(C)c[n+]2C [HETEROMINE B] | > 100 µM (inactive) | > 100 µM (inactive) | > 100 µM (inactive) | > 100 µM (inactive) | – | > 100 µM (inactive) | > 100 µM (inactive) | > 100 µM (inactive) | > 100 µM (inactive) | > 100 µM (inactive) | > 100 µM (inactive) | > 100 µM (inactive) | > 100 µM (inactive) | > 100 µM (inactive) | 53.3 µM (inactive) | > 100 µM (inactive) | > 100 µM (inactive) | > 100 µM (inactive) | > 100 µM (inactive) | > 100 µM (inactive) |
